Measured values as given in publication PMC8037182, “Solvothermal Synthesis of Multiple Dihydropyrimidinones at a Time as Inhibitors of Eg5” (Molecules, 2021).

System: L929 cell line
Assay: Cytotoxicity MTS assay, L929 cell line
Assay type: cell-based
Settings: for OD490 values, Mean / OD490 values, Well 1 / OD490 values, Well 2 / OD490 values, Well 3: L929 cell line; for IC50: MTS assay, 24 h exposure, ordinary fibroblast, not cancer cells
Description: The positive compounds (IC50 < 100 μM) obtained from the primary Eg5 motor protein ATPase assay were tested for antiproliferative activity in vitro against Caco-2 cell line, Hela cell line, L929 cell line and T24 cell line by performing MTS assay. Cells were introduced into 96-well plates at a density of 1000 cells per well. After 24 h incubation, the cells were exposed with compounds at final concentrations ranging from 0.5 to 100 µM for 24 h. DMSO was used at a final concentration of 0.025% as blank control, monastrol was used as the positive control. Then 20 µL (CellTiter 96® AQueous One Solution Promega, Madison, WI, USA) reagent was added in each well. After 2 h at 37 °C in a 80% humidified, 5% CO2 atmosphere, the absorbance at 490 nm was recorded using a microplate reader (BIO-RAD iMark^TM). The results were obtained in three independent duplicate experiments. The primary data were shown in Supplementary Materials Tables S4–S7. The IC50 values for these compounds were calculated from a non-linear regression graph plotted between the percentage of cell viability and concentration with SPSS17.0 software.

## CCOC(=O)c1[nH]c(C2NC(=S)NC(C)=C2C(=O)OC)c(C(=O)OCC)c1C (centres unmarked) [D12]
0.5μM, first assay
  OD490 values, Mean: 1.1913
  OD490 values, Well 1: 1.1038
  OD490 values, Well 2: 1.2202
  OD490 values, Well 3: 1.2500
0.5μM, second assay
  OD490 values, Mean: 1.4730
  OD490 values, Well 1: 1.5380
  OD490 values, Well 2: 1.4321
  OD490 values, Well 3: 1.4489
0.5μM, third assay
  OD490 values, Mean: 1.5772
  OD490 values, Well 1: 1.5471
  OD490 values, Well 2: 1.5630
  OD490 values, Well 3: 1.6214
1μM, first assay
  OD490 values, Mean: 1.1860
  OD490 values, Well 1: 1.2156
  OD490 values, Well 2: 1.2049
  OD490 values, Well 3: 1.1374
1μM, second assay
  OD490 values, Mean: 1.4734
  OD490 values, Well 1: 1.5248
  OD490 values, Well 2: 1.4852
  OD490 values, Well 3: 1.4101
1μM, third assay
  OD490 values, Mean: 1.5596
  OD490 values, Well 1: 1.5474
  OD490 values, Well 2: 1.5836
  OD490 values, Well 3: 1.5478
10μM, first assay
  OD490 values, Mean: 1.1924
  OD490 values, Well 1: 1.2175
  OD490 values, Well 2: 1.1577
  OD490 values, Well 3: 1.2021
10μM, second assay
  OD490 values, Mean: 1.4056
  OD490 values, Well 1: 1.3665
  OD490 values, Well 2: 1.4252
  OD490 values, Well 3: 1.4252
10μM, third assay
  OD490 values, Mean: 1.6223
  OD490 values, Well 1: 1.6874
  OD490 values, Well 2: 1.5874
  OD490 values, Well 3: 1.5922
25μM, first assay
  OD490 values, Mean: 1.1330
  OD490 values, Well 1: 1.1639
  OD490 values, Well 2: 1.1385
  OD490 values, Well 3: 1.0965
25μM, second assay
  OD490 values, Mean: 1.3592
  OD490 values, Well 1: 1.4632
  OD490 values, Well 2: 1.2302
  OD490 values, Well 3: 1.3841
25μM, third assay
  OD490 values, Mean: 1.5851
  OD490 values, Well 1: 1.5924
  OD490 values, Well 2: 1.5955
  OD490 values, Well 3: 1.5674
50μM, first assay
  OD490 values, Mean: 1.0425
  OD490 values, Well 1: 1.0133
  OD490 values, Well 2: 1.0567
  OD490 values, Well 3: 1.0575
50μM, second assay
  OD490 values, Mean: 1.2636
  OD490 values, Well 1: 1.2147
  OD490 values, Well 2: 1.2548
  OD490 values, Well 3: 1.3214
50μM, third assay
  OD490 values, Mean: 1.3874
  OD490 values, Well 1: 1.3352
  OD490 values, Well 2: 1.3582
  OD490 values, Well 3: 1.4687
100μM, first assay
  OD490 values, Mean: 0.9106
  OD490 values, Well 1: 0.8752
  OD490 values, Well 2: 0.9980
  OD490 values, Well 3: 0.8587
100μM, second assay
  OD490 values, Mean: 1.0255
  OD490 values, Well 1: 0.9632
  OD490 values, Well 2: 1.0012
  OD490 values, Well 3: 1.1122
100μM, third assay
  OD490 values, Mean: 1.3052
  OD490 values, Well 1: 1.3254
  OD490 values, Well 2: 1.2547
  OD490 values, Well 3: 1.3354
  IC50: 121 µM

## CCOC(=O)c1c(C2NC(=O)NC(C)=C2C(=O)Nc2ccccc2OC)[nH]c(C(=O)OC)c1C (centres unmarked) [D1]
0.5μM, first assay
  OD490 values, Mean: 1.3706
  OD490 values, Well 1: 1.4101
  OD490 values, Well 2: 1.3370
  OD490 values, Well 3: 1.3648
0.5μM, second assay
  OD490 values, Mean: 1.7900
  OD490 values, Well 1: 1.7354
  OD490 values, Well 2: 1.9532
  OD490 values, Well 3: 1.6814
0.5μM, third assay
  OD490 values, Mean: 1.6902
  OD490 values, Well 1: 1.6425
  OD490 values, Well 2: 1.7433
  OD490 values, Well 3: 1.6847
1μM, first assay
  OD490 values, Mean: 1.3549
  OD490 values, Well 1: 1.3334
  OD490 values, Well 2: 1.3850
  OD490 values, Well 3: 1.3462
1μM, second assay
  OD490 values, Mean: 1.7547
  OD490 values, Well 1: 1.7965
  OD490 values, Well 2: 1.7320
  OD490 values, Well 3: 1.7355
1μM, third assay
  OD490 values, Mean: 1.7249
  OD490 values, Well 1: 1.7365
  OD490 values, Well 2: 1.7452
  OD490 values, Well 3: 1.6930
10μM, first assay
  OD490 values, Mean: 1.3153
  OD490 values, Well 1: 1.3870
  OD490 values, Well 2: 1.3090
  OD490 values, Well 3: 1.2498
10μM, second assay
  OD490 values, Mean: 1.7648
  OD490 values, Well 1: 1.6895
  OD490 values, Well 2: 1.7985
  OD490 values, Well 3: 1.8063
10μM, third assay
  OD490 values, Mean: 1.7158
  OD490 values, Well 1: 1.7235
  OD490 values, Well 2: 1.7253
  OD490 values, Well 3: 1.6985
25μM, first assay
  OD490 values, Mean: 1.2680
  OD490 values, Well 1: 1.2444
  OD490 values, Well 2: 1.2849
  OD490 values, Well 3: 1.2747
25μM, second assay
  OD490 values, Mean: 1.6159
  OD490 values, Well 1: 1.6525
  OD490 values, Well 2: 1.5652
  OD490 values, Well 3: 1.6301
25μM, third assay
  OD490 values, Mean: 1.4383
  OD490 values, Well 1: 1.5307
  OD490 values, Well 2: 1.3321
  OD490 values, Well 3: 1.4521
50μM, first assay
  OD490 values, Mean: 1.2064
  OD490 values, Well 1: 1.2251
  OD490 values, Well 2: 1.1315
  OD490 values, Well 3: 1.2627
50μM, second assay
  OD490 values, Mean: 1.4454
  OD490 values, Well 1: 1.4685
  OD490 values, Well 2: 1.3855
  OD490 values, Well 3: 1.4822
50μM, third assay
  OD490 values, Mean: 1.3084
  OD490 values, Well 1: 1.3124
  OD490 values, Well 2: 1.3165
  OD490 values, Well 3: 1.2962
100μM, first assay
  OD490 values, Mean: 1.1038
  OD490 values, Well 1: 1.1234
  OD490 values, Well 2: 1.0461
  OD490 values, Well 3: 1.1419
100μM, second assay
  OD490 values, Mean: 1.2865
  OD490 values, Well 1: 1.2022
  OD490 values, Well 2: 1.2699
  OD490 values, Well 3: 1.3874
100μM, third assay
  OD490 values, Mean: 1.3217
  OD490 values, Well 1: 1.4554
  OD490 values, Well 2: 1.2165
  OD490 values, Well 3: 1.2933
  IC50: 125 µM
